Source: patent US9695155B2, “Herbicidal substituted pyrimidinyloxy benzene compounds” (E. I. DU PONT DE NEMOURS AND COMPANY, priority 2013, dated 2017)

Columns and labels:
barnyardgrass [1] = experiment: Test C postemergence; assay type: in vivo, Echinochloa crus-galli; conditions: Echinochloa crus-galli, post-emergence
In short: (§1)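 Sown in loam/sand → sprayed pre-emergence; or grown to 1–4 leaves in peat mix → sprayed post-emergence. Same solvent/surfactant formulation both ways. Greenhouse 13–15 d. Score 0–100 visual.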

Italian ryegrass = experiment: Test C postemergence; assay type: in vivo, Lolium multiflorum; conditions: Lolium multiflorum, post-emergence
In short: as §1

large (Lg) crabgrass [2] = experiment: Test A postemergence; assay type: in vivo, Digitaria sanguinalis; conditions: Digitaria sanguinalis, post-emergence, 240 h
In short: (§2)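 Visual 0–100 rating (100 = complete control) taken about 10 d post-treatment relative to untreated checks. Preemergence: directed soil spray on sown loam/sand pots. Postemergence: seedlings 2–10 cm, 1–2 leaf. Non-phytotoxic solvent formulation with surfactant.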

pigweed = experiment: Test A postemergence; assay type: in vivo, Amaranthus retroflexus; conditions: Amaranthus retroflexus, post-emergence, 0 to 100 scale where 0 is no effect and 100 is complete control, read-out: Plant response rating, Pigweed
In short: as §2

wheat = experiment: Test A preemergence; assay type: in vivo, Triticum aestivum
In short: as §2

ragweed = experiment: Test C postemergence; assay type: in vivo, Ambrosia elatior; conditions: Ambrosia artemisiifolia, post-emergence
In short: as §1

yellow nutsedge = experiment: Test C postemergence; assay type: in vivo, Cyperus esculentus; conditions: Cyperus, post-emergence
In short: as §1

rice = experiment: Test B flooded paddy test; assay type: in vivo, Oryza sativa; conditions: Oryza sativa; Flood, 250 g ai/ha; 0 to 100 scale where 0 is no effect and 100 is complete control; read-out: Plant response rating, Rice
In short: (§3)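 Greenhouse flooded-pot test: compounds dosed into 3 cm standing water over 2-leaf plants, flood held constant. Rated visually after 13–15 days on 0–100 (complete control = 100); a dash marks no test result.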

large (Lg) crabgrass [3] = experiment: Test C postemergence; assay type: in vivo, Digitaria sanguinalis; conditions: Digitaria sanguinalis, post-emergence
In short: as §1

soybean = experiment: Test C postemergence; assay type: in vivo, Glycine max; conditions: Glycine max, post-emergence
In short: as §1

barnyardgrass [4] = experiment: Test A preemergence; assay type: in vivo, Echinochloa crus-galli; conditions: Echinochloa crus-galli, pre-emergence, 240 h
In short: as §2

blackgrass = experiment: Test C postemergence; assay type: in vivo, Alopecurus myosuroides; conditions: Alopecurus myosuroides, post-emergence
In short: as §1

lambsquarters = experiment: Test C postemergence; assay type: in vivo, Chenopodium album; conditions: Chenopodium album, post-emergence
In short: as §1

galium = experiment: Test C postemergence; assay type: in vivo, Galium aparine; conditions: Galium, post-emergence
In short: as §1

sedge, umbrella = experiment: Test B flooded paddy test; assay type: in vivo, Cyperus difformis; conditions: Cyperus difformis, Flood, 250 g ai/ha; 0 to 100 scale where 0 is no effect and 100 is complete control; read-out: Plant response rating, Sedge, Umbrella
In short: as §3

SMILES: N#Cc1cccc(Oc2ncc(F)cn2)c1-n1cc(C(F)(F)F)cn1 [Compound 79, 3-[(5-fluoro-2-pyrimidinyl)oxy]-2-[4-(trifluoromethyl)-1H-pyrazol-1-yl]benzonitrile]
- pest or weed control at 125 g/ha (barnyardgrass [1]; 125 g ai/ha, postemergence, read-out: Plant response rating (0 to 100), Barnyardgrass): 20%
- pest or weed control at 250 g/ha (barnyardgrass [1]; 250 g ai/ha, postemergence, read-out: Plant response rating (0 to 100), Barnyardgrass): 75%
- pest or weed control at 31 g/ha (barnyardgrass [1]; Postemergence, 31 g ai/ha, scale 0 to 100 (0 no effect, 100 complete control), 13 to 15 days, read-out: Plant response rating, Barnyardgrass): 5%
- pest or weed control at 62 g/ha (barnyardgrass [1]; Postemergence, 62 g ai/ha, scale 0 to 100 (0 no effect, 100 complete control), read-out: Plant response rating, Barnyardgrass): 5%
- pest or weed control at 125 g/ha (Italian ryegrass; 125 g ai/ha, postemergence, read-out: Plant response rating (0 to 100), Ryegrass, Italian): 20%
- pest or weed control at 250 g/ha (Italian ryegrass; 250 g ai/ha, postemergence, read-out: Plant response rating (0 to 100), Ryegrass, Italian): 20%
- pest or weed control at 31 g/ha (Italian ryegrass; Postemergence, 31 g ai/ha, scale 0 to 100 (0 no effect, 100 complete control), 13 to 15 days, read-out: Plant response rating, Ryegrass, Italian): 5%
- pest or weed control at 62 g/ha (Italian ryegrass; Postemergence, 62 g ai/ha, scale 0 to 100 (0 no effect, 100 complete control), read-out: Plant response rating, Ryegrass, Italian): 10%
- pest or weed control at 125 g/ha (large (Lg) crabgrass [2]; 125 g ai/ha, 0 to 100 scale where 0 is no effect and 100 is complete control, read-out: Plant response rating, Crabgrass, Large): 100%
- pest or weed control at 500 g/ha (large (Lg) crabgrass [2]; 500 g ai/ha, 0 to 100 scale, 0 no effect, 100 complete control, read-out: Plant response rating Crabgrass, Large): 100%
- pest or weed control at 125 g/ha (pigweed; 125 g ai/ha): 100%
- pest or weed control at 500 g/ha (pigweed; 500 g ai/ha): 100%
- Plant response rating, Wheat (wheat; 125 g ai/ha, 0 to 100 scale where 0 is no effect and 100 is complete control): 70
- plant injury at 500 g/ha (wheat; Triticum aestivum, pre-emergence, 240 h, 500 g ai/ha, 0 to 100 scale, 0 no effect, 100 complete control, approx. 10 days, read-out: Wheat plant response rating): 100%
- pest or weed control at 125 g/ha (ragweed; 125 g ai/ha, postemergence, read-out: Plant response rating (0 to 100), Ragweed): 70%
- pest or weed control at 250 g/ha (ragweed; 250 g ai/ha, postemergence, read-out: Plant response rating (0 to 100), Ragweed): 85%
- pest or weed control at 31 g/ha (ragweed; Postemergence, 31 g ai/ha, scale 0 to 100 (0 no effect, 100 complete control), 13 to 15 days, read-out: Plant response rating, Ragweed): 55%
- pest or weed control at 62 g/ha (ragweed; Postemergence, 62 g ai/ha, scale 0 to 100 (0 no effect, 100 complete control), read-out: Plant response rating, Ragweed): 70%
- pest or weed control at 125 g/ha (yellow nutsedge; 125 g ai/ha, postemergence, read-out: Plant response rating (0 to 100), Nutsedge, Yellow): 5%
- pest or weed control at 250 g/ha (yellow nutsedge; 250 g ai/ha, postemergence, read-out: Plant response rating (0 to 100), Nutsedge, Yellow): 25%
- pest or weed control at 31 g/ha (yellow nutsedge; Postemergence, 31 g ai/ha, scale 0 to 100 (0 no effect, 100 complete control), 13 to 15 days, read-out: Plant response rating, Nutsedge, Yellow): 5%
- pest or weed control at 62 g/ha (yellow nutsedge; Postemergence, 62 g ai/ha, scale 0 to 100 (0 no effect, 100 complete control), read-out: Plant response rating, Nutsedge, Yellow): 5%
- plant injury at 250 g/ha (rice): 45%
- pest or weed control at 125 g/ha (large (Lg) crabgrass [3]; 125 g ai/ha, postemergence, read-out: Plant response rating (0 to 100), Crabgrass, Large): 30%
- pest or weed control at 250 g/ha (large (Lg) crabgrass [3]; 250 g ai/ha, postemergence, read-out: Plant response rating (0 to 100), Crabgrass, Large): 65%
- pest or weed control at 31 g/ha (large (Lg) crabgrass [3]; Postemergence, 31 g ai/ha, scale 0 to 100 (0 no effect, 100 complete control), 13 to 15 days, read-out: Plant response rating, Crabgrass, Large): 20%
- pest or weed control at 62 g/ha (large (Lg) crabgrass [3]; Postemergence, 62 g ai/ha, scale 0 to 100 (0 no effect, 100 complete control), read-out: Plant response rating, Crabgrass, Large): 20%
- Soybean plant response rating (crop injury, 0-100 scale) at 125 g/ha (soybean; 125 g ai/ha, postemergence, read-out: Plant response rating (0 to 100), Soybean): 90%
- Soybean plant response rating (crop injury, 0-100 scale) at 250 g/ha (soybean; 250 g ai/ha, postemergence): 95%
- Soybean plant response rating (crop injury, 0-100 scale) at 31 g/ha (soybean; Postemergence, 31 g ai/ha, scale 0 to 100 (0 no effect, 100 complete control), 13 to 15 days): 65%
- Soybean plant response rating (crop injury, 0-100 scale) at 62 g/ha (soybean; Postemergence, 62 g ai/ha, scale 0 to 100 (0 no effect, 100 complete control)): 85%
- pest or weed control at 125 g/ha (barnyardgrass [4]; 125 g ai/ha, 0 to 100 scale where 0 is no effect and 100 is complete control, read-out: Plant response rating, Barnyardgrass): 100%
- pest or weed control at 500 g/ha (barnyardgrass [4]; 500 g ai/ha, 0 to 100 scale, 0 no effect, 100 complete control, approx. 10 days, read-out: Barnyardgrass plant response rating): 100%
- pest or weed control at 125 g/ha (blackgrass; 125 g ai/ha, postemergence, read-out: Plant response rating (0 to 100), Blackgrass): 35%
- pest or weed control at 250 g/ha (blackgrass; 250 g ai/ha, postemergence, read-out: Plant response rating (0 to 100), Blackgrass): 80%
- pest or weed control at 31 g/ha (blackgrass; Postemergence, 31 g ai/ha, scale 0 to 100 (0 no effect, 100 complete control), 13 to 15 days, read-out: Plant response rating, Blackgrass): 10%
- pest or weed control at 62 g/ha (blackgrass; Postemergence, 62 g ai/ha, scale 0 to 100 (0 no effect, 100 complete control), read-out: Plant response rating, Blackgrass): 30%
- pest or weed control at 125 g/ha (lambsquarters; 125 g ai/ha, postemergence, read-out: Plant response rating (0 to 100), Lambsquarters): 95%
- pest or weed control at 250 g/ha (lambsquarters; 250 g ai/ha, postemergence, read-out: Plant response rating (0 to 100), Lambsquarters): 98%
- pest or weed control at 31 g/ha (lambsquarters; Postemergence, 31 g ai/ha, scale 0 to 100 (0 no effect, 100 complete control), 13 to 15 days, read-out: Plant response rating, Lambsquarters): 90%
- pest or weed control at 62 g/ha (lambsquarters; Postemergence, 62 g ai/ha, scale 0 to 100 (0 no effect, 100 complete control), read-out: Plant response rating, Lambsquarters): 95%
- pest or weed control at 125 g/ha (galium; 125 g ai/ha, postemergence, read-out: Plant response rating (0 to 100), Galium): 80%
- pest or weed control at 250 g/ha (galium; 250 g ai/ha, postemergence, read-out: Plant response rating (0 to 100), Galium): 95%
- pest or weed control at 31 g/ha (galium; Postemergence, 31 g ai/ha, scale 0 to 100 (0 no effect, 100 complete control), 13 to 15 days, read-out: Plant response rating, Galium): 65%
- pest or weed control at 62 g/ha (galium; Postemergence, 62 g ai/ha, scale 0 to 100 (0 no effect, 100 complete control), read-out: Plant response rating, Galium): 75%
- pest or weed control at 250 g/ha (sedge, umbrella): 95%
